Tests used:
[1] = molecular target: T1, Potassium voltage-gated channel subfamily A member 5 (Homo sapiens, UniProt P22460); test: Inhibition of Kv1.5 expressed in LTK- cells by whole cell patch clamp assay at 1uM; assay type: functional, cell-based
[2] = molecular target: T1, Potassium voltage-gated channel subfamily A member 5; test: Inhibition of Kv1.5 expressed in LTK- cells by whole cell patch clamp assay; assay type: functional, cell-based
Homo sapiens [3] = organism: Homo sapiens; test: Selectivity for Kv1.5 compared to hERG; assay type: functional
Homo sapiens [4] = organism: Homo sapiens; test: Selectivity for Kv1.5 compared to L-type calcium channel; assay type: functional
[5] = molecular target: Voltage-gated L-type calcium channel (Homo sapiens, UniProt Q13936+Q13698+Q01668+O60840); test: Inhibition of L-type calcium channel by FLIPR assay; assay type: functional
[6] = molecular target: Voltage-gated inwardly rectifying potassium channel KCNH2 (Homo sapiens, UniProt Q12809); test: Inhibition of hERG expressed in HEK cells by whole cell patch clamp assay; assay type: toxicity, cell-based, HEK293
Sequence of Voltage-gated inwardly rectifying potassium channel KCNH2 (Q12809 whole entry): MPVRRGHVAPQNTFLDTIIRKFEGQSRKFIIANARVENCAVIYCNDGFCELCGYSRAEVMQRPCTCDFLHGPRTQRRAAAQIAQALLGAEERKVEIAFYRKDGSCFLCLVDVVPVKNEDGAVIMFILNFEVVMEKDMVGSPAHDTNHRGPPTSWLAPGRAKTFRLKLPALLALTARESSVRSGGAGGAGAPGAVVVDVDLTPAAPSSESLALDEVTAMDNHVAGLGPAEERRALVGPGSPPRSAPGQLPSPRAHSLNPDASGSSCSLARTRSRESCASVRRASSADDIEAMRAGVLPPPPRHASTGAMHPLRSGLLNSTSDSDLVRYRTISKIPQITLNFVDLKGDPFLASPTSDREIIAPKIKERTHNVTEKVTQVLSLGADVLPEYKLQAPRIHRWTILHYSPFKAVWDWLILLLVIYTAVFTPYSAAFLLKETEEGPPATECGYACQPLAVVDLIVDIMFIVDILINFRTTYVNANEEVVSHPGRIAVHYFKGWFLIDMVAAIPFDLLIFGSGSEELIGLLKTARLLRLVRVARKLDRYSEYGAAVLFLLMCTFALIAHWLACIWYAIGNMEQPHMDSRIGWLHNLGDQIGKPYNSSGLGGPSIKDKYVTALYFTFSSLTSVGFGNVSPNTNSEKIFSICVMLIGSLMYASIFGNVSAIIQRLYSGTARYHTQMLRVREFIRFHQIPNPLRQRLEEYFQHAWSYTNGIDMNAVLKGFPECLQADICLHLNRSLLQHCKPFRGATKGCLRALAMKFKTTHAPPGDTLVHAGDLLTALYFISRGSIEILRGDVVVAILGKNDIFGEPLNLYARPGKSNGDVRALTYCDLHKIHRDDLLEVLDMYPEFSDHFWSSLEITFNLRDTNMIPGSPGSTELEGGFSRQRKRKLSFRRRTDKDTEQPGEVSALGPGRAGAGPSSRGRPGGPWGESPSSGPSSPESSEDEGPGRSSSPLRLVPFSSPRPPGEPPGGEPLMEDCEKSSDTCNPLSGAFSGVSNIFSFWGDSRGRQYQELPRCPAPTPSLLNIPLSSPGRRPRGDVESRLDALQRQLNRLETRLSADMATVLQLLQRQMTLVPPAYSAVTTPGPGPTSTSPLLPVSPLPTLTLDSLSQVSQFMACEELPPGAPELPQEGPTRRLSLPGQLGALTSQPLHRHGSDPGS

T1 sequence (P22460 whole entry): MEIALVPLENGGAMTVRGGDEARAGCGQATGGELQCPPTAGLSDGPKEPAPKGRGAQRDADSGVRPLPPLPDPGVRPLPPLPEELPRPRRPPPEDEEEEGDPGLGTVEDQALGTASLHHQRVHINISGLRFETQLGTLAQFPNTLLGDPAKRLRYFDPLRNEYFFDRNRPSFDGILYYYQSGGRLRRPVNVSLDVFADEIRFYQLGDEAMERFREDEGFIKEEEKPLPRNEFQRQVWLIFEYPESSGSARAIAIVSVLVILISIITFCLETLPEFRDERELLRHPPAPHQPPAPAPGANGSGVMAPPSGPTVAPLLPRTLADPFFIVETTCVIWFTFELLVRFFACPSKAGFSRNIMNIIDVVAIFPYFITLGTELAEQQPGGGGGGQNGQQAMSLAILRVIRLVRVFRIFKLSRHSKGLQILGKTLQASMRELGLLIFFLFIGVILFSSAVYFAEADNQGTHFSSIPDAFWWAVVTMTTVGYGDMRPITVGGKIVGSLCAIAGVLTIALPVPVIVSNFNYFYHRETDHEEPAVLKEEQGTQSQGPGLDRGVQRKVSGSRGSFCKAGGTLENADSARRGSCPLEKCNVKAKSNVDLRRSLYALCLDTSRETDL

Compound	inhibition [1] [%]	other results
CCc1c2c(n(CC)c1C)CCC/C2=N\OC(=O)Nc1ccc(C(C)=O)cc1	71	
CC(=O)c1ccc(NC(=O)O/N=C2\CCCC3=C2C2CCCC2N3)cc1 (stereo unspecified)	79	
CCc1c2c(n(C)c1CC)CCC/C2=N\OC(=O)Nc1ccc(C(C)=O)cc1	92	
CCc1c(C)[nH]c2c1/C(=N/OC(=O)NCCc1cccnc1)CCC2	25	
CCc1c2c(n(C)c1C)CCC/C2=N\OC(=O)Nc1ccc(C(C)=O)cc1	96	IC50 [2]: 368 nM
O=C(Nc1ccccc1)O/N=C1\CCCC2=C1C1CCCC1N2 (stereo unspecified)	79	
CCc1c2c(n(C)c1CC)CCC/C2=N\OC(=O)Nc1ccccc1	99	Ratio (Homo sapiens [3]): > 450; Ratio (Homo sapiens [4]): > 450; IC50 [5]: 20000 nM; IC50 [6]: > 30000 nM; IC50 [2]: 21 nM
CCc1c2c(n(CC)c1C)CCC/C2=N\OC(=O)Nc1ccccc1	35	
CCc1c2c(n(C)c1C)CCC/C2=N\OC(=O)Nc1ccccc1	77	
CC(=O)c1ccc(NC(=O)O/N=C2\CCCc3c2c(C(C)C)c(C)n3C)cc1	96	
O=C(Nc1ccc(Cl)cc1)O/N=C1\CCCC2=C1C1CCCC1N2 (stereo unspecified)	58	
CCc1c(C)[nH]c2c1/C(=N/OC(=O)NCCc1ccccn1)CCC2	91	IC50 [2]: 547 nM
Cc1[nH]c2c(c1C)/C(=N/OC(=O)Nc1ccccc1)CCC2	57	

Further lines, with some results ahead:

inhibition [1] [%]	Compound	other results
76	CCc1c(C)[nH]c2c1/C(=N/OC(=O)NCCc1ccccc1)CCC2	
87	CCc1[nH]c2c(c1CC)/C(=N/OC(=O)Nc1ccc(Cl)cc1)CCC2	
91	CCc1c(C)[nH]c2c1/C(=N/OC(=O)Nc1ccc(Cl)cc1)CCC2	
6	CCc1c(C)[nH]c2c1/C(=N/OC(=O)Nc1ccc(C(C)(C)C)cc1)CCC2	
85	CCc1c(C)[nH]c2c1/C(=N/OC(=O)Nc1ccc(C)cc1)CCC2	
70	CCc1c(C)[nH]c2c1/C(=N/OC(=O)NCc1ccccc1)CCC2	
95	CCc1c(C)[nH]c2c1/C(=N/OC(=O)Nc1ccc(C#N)cc1)CCC2	
90	CCc1c(C)[nH]c2c1/C(=N/OC(=O)Nc1ccc(SC)cc1)CCC2	IC50 [2]: 350 nM
90	CCc1c(C)[nH]c2c1/C(=N/OC(=O)Nc1ccc(F)cc1)CCC2	IC50 [2]: 275 nM
91	CCc1c(C)[nH]c2c1/C(=N/OC(=O)Nc1ccccc1)CCC2	Ratio (Homo sapiens [3]): > 450; Ratio (Homo sapiens [4]): > 450; IC50 [5]: > 30000 nM; IC50 [6]: > 30000 nM; IC50 [2]: 67 nM
60	CC(=O)c1ccc(NC(=O)O/N=C2\CCCc3[nH]c(C)c(C)c32)cc1	
73	CCc1c(C)[nH]c2c1/C(=N/OC(=O)Nc1cccc(SC)c1)CCC2	
20	CCc1c(C)[nH]c2c1/C(=N/OC(=O)NCCc1ccncc1)CCC2	
41	CCc1c(C)[nH]c2c1/C(=N/OC(=O)Nc1ccccc1SC)CCC2	
51	CCc1c(C)[nH]c2c1/C(=N/OC(=O)Nc1ccc(C(C)C)cc1)CCC2	
91	CCc1c(C)[nH]c2c1/C(=N/OC(=O)Nc1ccc(C(C)=O)cc1)CCC2	
78	Cc1[nH]c2c(c1C)/C(=N/OC(=O)Nc1ccc(Cl)cc1)CCC2	
90	CCc1c(C)[nH]c2c1/C(=N/OC(=O)Nc1ccc(OC)cc1)CCC2	
84	CCc1[nH]c2c(c1CC)/C(=N/OC(=O)Nc1ccccc1)CCC2	

Source: ChEMBL document CHEMBL1137274, “Discovery and synthesis of tetrahydroindolone-derived carbamates as Kv1.5 blockers” (Bioorg Med Chem Lett, 2006)
